Data: the NIST ThermoML archive (doi:10.1016/j.tca.2004.12.012)
Numbers after ± are expanded uncertainties.

Conditions: Crystal 2; DTA

Triple point temperature: 1114 ± 3 K
SMILES: [Br-].[Na+] [sodium bromide]
